Measurements reported in ChEMBL document CHEMBL5291721, “A preclinical secondary pharmacology resource illuminates target-adverse drug reaction associations of marketed drugs” (Nat Commun, 2023).

How the values were obtained:
[1] = target: T1, Alpha-2A adrenergic receptor (Homo sapiens, UniProt P08913); format: functional, cell-based
T1 sequence (P08913 whole entry): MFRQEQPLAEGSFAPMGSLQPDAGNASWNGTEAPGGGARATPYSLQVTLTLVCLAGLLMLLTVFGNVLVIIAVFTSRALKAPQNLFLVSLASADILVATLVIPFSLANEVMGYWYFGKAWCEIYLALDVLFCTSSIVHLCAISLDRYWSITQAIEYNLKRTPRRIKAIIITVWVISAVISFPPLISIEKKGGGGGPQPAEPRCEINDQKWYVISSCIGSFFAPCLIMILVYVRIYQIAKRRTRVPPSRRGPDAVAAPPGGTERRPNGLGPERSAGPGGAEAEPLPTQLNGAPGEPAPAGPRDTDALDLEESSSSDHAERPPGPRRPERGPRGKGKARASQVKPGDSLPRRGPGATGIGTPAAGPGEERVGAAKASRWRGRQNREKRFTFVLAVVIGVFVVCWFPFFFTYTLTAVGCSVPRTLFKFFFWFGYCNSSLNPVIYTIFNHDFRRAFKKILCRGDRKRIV

[2] = target: Beta-2 adrenergic receptor (Homo sapiens, UniProt P07550)
Sequence of Beta-2 adrenergic receptor (P07550 whole entry): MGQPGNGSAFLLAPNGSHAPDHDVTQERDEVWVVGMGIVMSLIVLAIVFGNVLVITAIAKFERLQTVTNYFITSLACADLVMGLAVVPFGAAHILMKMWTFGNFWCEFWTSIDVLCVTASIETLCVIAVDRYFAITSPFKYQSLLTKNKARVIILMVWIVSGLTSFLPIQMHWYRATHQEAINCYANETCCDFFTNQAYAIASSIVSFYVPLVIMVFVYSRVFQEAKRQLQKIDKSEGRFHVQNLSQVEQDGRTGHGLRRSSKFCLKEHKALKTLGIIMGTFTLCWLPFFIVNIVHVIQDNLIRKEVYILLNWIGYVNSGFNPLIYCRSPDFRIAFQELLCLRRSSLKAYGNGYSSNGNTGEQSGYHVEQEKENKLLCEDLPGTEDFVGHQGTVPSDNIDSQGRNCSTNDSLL

Vasopressin V2 receptor = Vasopressin V2 receptor (Homo sapiens, UniProt P30518)
Sequence of Vasopressin V2 receptor (P30518 whole entry): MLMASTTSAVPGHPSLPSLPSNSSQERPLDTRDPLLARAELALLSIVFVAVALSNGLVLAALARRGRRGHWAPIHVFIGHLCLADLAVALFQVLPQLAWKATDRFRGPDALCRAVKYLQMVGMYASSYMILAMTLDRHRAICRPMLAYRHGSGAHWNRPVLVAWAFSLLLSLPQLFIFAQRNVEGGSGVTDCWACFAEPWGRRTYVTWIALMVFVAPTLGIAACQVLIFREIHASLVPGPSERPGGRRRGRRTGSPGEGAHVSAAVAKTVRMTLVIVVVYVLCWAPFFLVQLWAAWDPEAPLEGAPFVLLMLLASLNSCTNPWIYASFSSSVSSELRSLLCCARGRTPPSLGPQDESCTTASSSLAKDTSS

[3] = target: T2, Cholecystokinin receptor type A (Homo sapiens, UniProt P32238)
T2 sequence (P32238 whole entry): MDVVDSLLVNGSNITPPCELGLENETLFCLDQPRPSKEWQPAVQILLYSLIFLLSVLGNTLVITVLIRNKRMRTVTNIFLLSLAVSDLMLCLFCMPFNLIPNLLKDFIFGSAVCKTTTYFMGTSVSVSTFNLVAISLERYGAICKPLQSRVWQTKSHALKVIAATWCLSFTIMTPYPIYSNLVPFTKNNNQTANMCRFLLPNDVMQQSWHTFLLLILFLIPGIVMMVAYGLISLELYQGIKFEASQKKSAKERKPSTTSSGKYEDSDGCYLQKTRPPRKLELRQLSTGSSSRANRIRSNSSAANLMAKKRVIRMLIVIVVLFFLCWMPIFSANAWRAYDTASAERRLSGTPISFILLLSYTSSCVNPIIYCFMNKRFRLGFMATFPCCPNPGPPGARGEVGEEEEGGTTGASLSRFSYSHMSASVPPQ

[4] = target: Glutamate receptor ionotropic, NMDA 1 (Rattus norvegicus, UniProt P35439)
[5] = target: T3, 5-hydroxytryptamine receptor 2C (Homo sapiens, UniProt P28335)
T3 sequence (P28335 whole entry): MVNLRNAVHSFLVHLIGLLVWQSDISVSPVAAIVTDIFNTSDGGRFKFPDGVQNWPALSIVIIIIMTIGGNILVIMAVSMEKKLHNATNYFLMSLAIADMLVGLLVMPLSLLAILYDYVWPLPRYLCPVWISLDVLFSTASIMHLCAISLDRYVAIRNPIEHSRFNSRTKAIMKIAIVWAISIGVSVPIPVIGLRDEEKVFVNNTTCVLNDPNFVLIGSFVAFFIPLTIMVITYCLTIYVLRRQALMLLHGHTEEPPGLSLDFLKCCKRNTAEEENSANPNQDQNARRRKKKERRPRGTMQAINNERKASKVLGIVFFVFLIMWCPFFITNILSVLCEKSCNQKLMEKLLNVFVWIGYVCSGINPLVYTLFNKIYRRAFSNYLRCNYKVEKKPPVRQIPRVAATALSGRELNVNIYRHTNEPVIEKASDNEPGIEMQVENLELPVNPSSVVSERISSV

Melanocortin receptor 3 = Melanocortin receptor 3 (Homo sapiens, UniProt P41968)
Sequence of Melanocortin receptor 3 (P41968 whole entry): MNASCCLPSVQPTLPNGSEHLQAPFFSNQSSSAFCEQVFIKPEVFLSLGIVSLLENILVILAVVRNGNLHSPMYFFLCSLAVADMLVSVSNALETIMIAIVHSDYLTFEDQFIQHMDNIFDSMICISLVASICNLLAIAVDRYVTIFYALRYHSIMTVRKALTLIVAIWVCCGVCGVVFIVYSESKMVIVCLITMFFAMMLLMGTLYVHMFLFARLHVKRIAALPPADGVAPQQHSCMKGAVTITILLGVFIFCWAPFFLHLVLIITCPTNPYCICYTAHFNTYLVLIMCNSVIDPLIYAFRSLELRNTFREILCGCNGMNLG

[6] = target: T4, Neuropeptide Y receptor type 1 (Homo sapiens, UniProt P25929)
T4 sequence (P25929 whole entry): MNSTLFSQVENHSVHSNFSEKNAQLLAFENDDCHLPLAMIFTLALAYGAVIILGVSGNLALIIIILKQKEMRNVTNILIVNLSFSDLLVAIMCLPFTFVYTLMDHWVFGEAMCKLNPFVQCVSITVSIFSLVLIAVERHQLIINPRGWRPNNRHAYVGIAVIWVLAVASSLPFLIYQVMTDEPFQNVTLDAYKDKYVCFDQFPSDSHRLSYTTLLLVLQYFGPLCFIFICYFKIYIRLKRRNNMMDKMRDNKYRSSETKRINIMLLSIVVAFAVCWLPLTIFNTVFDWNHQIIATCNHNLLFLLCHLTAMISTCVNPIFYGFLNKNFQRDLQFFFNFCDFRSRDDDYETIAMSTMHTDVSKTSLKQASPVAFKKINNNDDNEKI

[7] = target: Sodium-dependent dopamine transporter (Homo sapiens, UniProt Q01959)
Sequence of Sodium-dependent dopamine transporter (Q01959 whole entry): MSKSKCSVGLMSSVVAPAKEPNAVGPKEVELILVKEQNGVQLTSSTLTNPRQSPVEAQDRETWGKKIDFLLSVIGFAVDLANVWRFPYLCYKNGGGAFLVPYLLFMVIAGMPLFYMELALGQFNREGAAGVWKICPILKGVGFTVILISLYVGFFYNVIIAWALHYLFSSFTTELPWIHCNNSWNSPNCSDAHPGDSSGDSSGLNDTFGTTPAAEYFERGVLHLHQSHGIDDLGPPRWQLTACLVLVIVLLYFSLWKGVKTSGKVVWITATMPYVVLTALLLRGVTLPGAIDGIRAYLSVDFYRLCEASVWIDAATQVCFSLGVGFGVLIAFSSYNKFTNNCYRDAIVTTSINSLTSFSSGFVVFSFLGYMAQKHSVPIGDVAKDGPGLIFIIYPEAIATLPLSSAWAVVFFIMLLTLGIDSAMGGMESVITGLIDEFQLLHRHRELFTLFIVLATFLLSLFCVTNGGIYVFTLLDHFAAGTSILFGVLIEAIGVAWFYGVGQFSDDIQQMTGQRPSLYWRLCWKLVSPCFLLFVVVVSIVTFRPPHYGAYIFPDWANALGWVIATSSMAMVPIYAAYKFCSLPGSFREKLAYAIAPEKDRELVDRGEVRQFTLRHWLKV

[8] = target: T5, Amine oxidase [flavin-containing] A (Homo sapiens, UniProt P21397); format: functional
T5 sequence (P21397 whole entry): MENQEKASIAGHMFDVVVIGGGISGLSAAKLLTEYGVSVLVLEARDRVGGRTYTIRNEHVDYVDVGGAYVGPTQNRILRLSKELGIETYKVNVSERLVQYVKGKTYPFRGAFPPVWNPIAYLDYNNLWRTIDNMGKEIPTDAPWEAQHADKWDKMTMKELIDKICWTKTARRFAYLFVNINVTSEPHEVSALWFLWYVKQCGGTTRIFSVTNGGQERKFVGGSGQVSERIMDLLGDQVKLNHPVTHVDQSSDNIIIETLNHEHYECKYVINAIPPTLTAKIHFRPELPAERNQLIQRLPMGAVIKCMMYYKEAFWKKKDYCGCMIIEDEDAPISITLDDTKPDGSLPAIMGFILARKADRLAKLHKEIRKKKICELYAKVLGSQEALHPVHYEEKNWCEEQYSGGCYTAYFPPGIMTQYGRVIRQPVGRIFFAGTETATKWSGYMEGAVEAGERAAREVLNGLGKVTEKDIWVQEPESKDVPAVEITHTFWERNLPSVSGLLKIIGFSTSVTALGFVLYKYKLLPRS

Histamine H3 receptor = Histamine H3 receptor (Homo sapiens, UniProt Q9Y5N1)
Sequence of Histamine H3 receptor (Q9Y5N1 whole entry): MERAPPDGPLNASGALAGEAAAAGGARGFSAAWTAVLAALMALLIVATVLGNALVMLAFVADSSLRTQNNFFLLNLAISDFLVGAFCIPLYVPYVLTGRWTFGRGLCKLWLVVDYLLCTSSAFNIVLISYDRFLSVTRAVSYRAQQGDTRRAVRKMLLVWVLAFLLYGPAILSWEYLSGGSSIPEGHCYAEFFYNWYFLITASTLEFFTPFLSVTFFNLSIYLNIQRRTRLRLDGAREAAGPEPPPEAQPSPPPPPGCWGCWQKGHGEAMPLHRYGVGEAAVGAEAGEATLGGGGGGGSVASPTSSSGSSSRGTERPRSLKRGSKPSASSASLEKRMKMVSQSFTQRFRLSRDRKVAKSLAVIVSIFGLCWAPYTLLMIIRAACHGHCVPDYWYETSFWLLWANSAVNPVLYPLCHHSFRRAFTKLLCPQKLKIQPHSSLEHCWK

Cannabinoid receptor 1 = Cannabinoid receptor 1 (Homo sapiens, UniProt P21554); format: functional, cell-based
Sequence of Cannabinoid receptor 1 (P21554 whole entry): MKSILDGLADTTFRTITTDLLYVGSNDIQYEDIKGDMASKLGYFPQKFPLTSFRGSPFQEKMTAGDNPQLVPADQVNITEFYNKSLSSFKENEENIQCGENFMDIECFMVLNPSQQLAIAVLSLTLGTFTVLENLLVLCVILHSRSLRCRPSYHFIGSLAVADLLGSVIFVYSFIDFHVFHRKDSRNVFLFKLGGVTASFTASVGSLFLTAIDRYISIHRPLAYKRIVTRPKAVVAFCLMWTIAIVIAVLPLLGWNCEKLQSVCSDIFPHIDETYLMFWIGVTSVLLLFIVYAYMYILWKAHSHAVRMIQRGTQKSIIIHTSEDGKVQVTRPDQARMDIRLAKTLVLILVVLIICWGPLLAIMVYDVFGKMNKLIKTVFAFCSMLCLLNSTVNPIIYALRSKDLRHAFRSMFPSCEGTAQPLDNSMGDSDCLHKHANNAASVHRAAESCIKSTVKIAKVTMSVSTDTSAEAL
Further: assay procedure not described here.

SMILES | AC50 [1] | AC50 [2] | AC50 (Vasopressin V2 receptor) | AC50 [3] | AC50 [4] | AC50 [5] | AC50 (Melanocortin receptor 3) | AC50 [6] | AC50 [7] | AC50 [8] | AC50 (Histamine H3 receptor) | AC50 (Cannabinoid receptor 1)
O=C(O)C1=C(CSc2nnnn2CS(=O)(=O)O)CS[C@@H]2[C@H](NC(=O)[C@H](O)c3ccccc3)C(=O)N12 [CEFONICID] | > 30 µM | > 30 µM | > 30 µM | > 30 µM | > 30 µM | > 30 µM | > 30 µM | > 30 µM | > 30 µM | > 30 µM | > 30 µM | –
CC(Oc1c(Cl)cccc1Cl)C1=NCCN1 (configuration not stated) [LOFEXIDINE] | – | > 30 µM | > 30 µM | > 30 µM | > 30 µM | > 30 µM | > 30 µM | > 30 µM | > 30 µM | > 30 µM | > 30 µM | –
CC(C(=O)O)c1ccc(N2Cc3ccccc3C2=O)cc1 (configuration not stated) [INDOPROFEN] | > 30 µM | > 30 µM | > 30 µM | > 30 µM | > 30 µM | > 30 µM | > 30 µM | > 30 µM | > 30 µM | > 30 µM | > 30 µM | –
N#Cc1ccc([C@H]2CCc3cncn32)c(F)c1 [OSILODROSTAT] | – | > 10 µM | – | > 10 µM | > 10 µM | > 10 µM | > 10 µM | > 10 µM | > 10 µM | – | > 10 µM | –
Clc1ccc(CCCOCCCN2CCCCC2)cc1 [PITOLISANT] | – | – | > 30 µM | > 30 µM | > 30 µM | > 30 µM | > 30 µM | > 30 µM | 8.5 µM | > 30 µM | – | > 30 µM
CNC(C)CCC=C(C)C (configuration not stated) [ISOMETHEPTENE] | – | > 30 µM | > 30 µM | > 30 µM | – | – | > 30 µM | > 30 µM | > 30 µM | – | > 30 µM | –
CCc1c(Cl)c(O)c(Cl)c(O)c1C(=O)O[C@H]1[C@H](O)[C@H](OC)[C@H](OC/C2=C\C=C\C[C@H](O)/C(C)=C/[C@H](CC)[C@@H](O[C@@H]3OC(C)(C)[C@@H](OC(=O)C(C)C)[C@H](O)[C@@H]3O)/C(C)=C/C(C)=C/C[C@@H]([C@@H](C)O)OC2=O)O[C@@H]1C [FIDAXOMICIN] | – | > 10 µM | > 30 µM | – | > 10 µM | > 30 µM | > 30 µM | > 30 µM | > 30 µM | > 30 µM | > 10 µM | –
Nc1nc(/C(=C/CC(=O)O)C(=O)N[C@@H]2C(=O)N3C(C(=O)O)=CCS[C@H]23)cs1 [CEFTIBUTEN] | > 30 µM | > 30 µM | > 30 µM | > 30 µM | > 30 µM | > 30 µM | > 30 µM | > 30 µM | > 30 µM | > 30 µM | > 30 µM | –
C=CCC1(C(C)CC)C(=O)NC(=O)NC1=O (configuration not stated) [TALBUTAL] | > 10 µM | > 10 µM | > 10 µM | > 10 µM | > 10 µM | > 30 µM | > 10 µM | > 10 µM | > 10 µM | > 10 µM | > 10 µM | –
CC(C)=CCC/C(C)=C/C=C/C(C)=C/C=C/C(C)=C/C=C/C=C(C)/C=C/C=C(C)/C=C/C=C(\C)CCC=C(C)C [LYCOPENE] | > 30 µM | > 30 µM | > 30 µM | > 30 µM | > 30 µM | > 30 µM | > 30 µM | > 30 µM | > 30 µM | > 30 µM | > 30 µM | –
Cc1cc(O)c(C(=O)N[C@@H](C(=O)N[C@@H]2C(=O)N3C(C(=O)O)=C(CSc4nnnn4C)CS[C@H]23)c2ccc(O)cc2)cn1 [CEFPIRAMIDE] | > 30 µM | > 30 µM | > 30 µM | > 30 µM | > 30 µM | > 30 µM | > 30 µM | > 30 µM | > 30 µM | > 30 µM | > 30 µM | –
CC(C)Cn1cnc2c(N)nc3ccccc3c21 [IMIQUIMOD] | > 10 µM | > 10 µM | > 10 µM | > 10 µM | > 10 µM | > 30 µM | > 30 µM | > 10 µM | > 30 µM | > 10 µM | > 10 µM | –
CCCN(CCC)C(=O)C(CCC(=O)O)NC(=O)c1ccccc1 (configuration not stated) [PROGLUMIDE] | > 10 µM | > 30 µM | > 30 µM | > 30 µM | > 10 µM | > 30 µM | > 30 µM | > 30 µM | > 30 µM | > 30 µM | > 30 µM | –
CC(C)(C)c1cc(C(C)(C)C)c(NC(=O)c2c[nH]c3ccccc3c2=O)cc1O [IVACAFTOR] | > 10 µM | > 10 µM | > 30 µM | > 30 µM | > 10 µM | > 30 µM | > 30 µM | > 30 µM | 11.2 µM | > 10 µM | > 10 µM | –
Cc1cccc(C(C)c2cnc[nH]2)c1C (configuration not stated) [MEDETOMIDINE] | – | > 30 µM | > 30 µM | > 30 µM | > 10 µM | > 30 µM | > 30 µM | > 30 µM | > 30 µM | > 30 µM | > 30 µM | –
CNS(=O)(=O)Cc1ccc2[nH]cc(CCN(C)C)c2c1 | > 30 µM | > 10 µM | > 30 µM | > 30 µM | > 30 µM | – | > 30 µM | > 30 µM | > 10 µM | > 30 µM | – | > 30 µM
CCCC(=O)O[C@]1(C(=O)CO)CC[C@H]2[C@@H]3CCC4=CC(=O)CC[C@]4(C)[C@H]3[C@@H](O)C[C@@]21C [HYDROCORTISONE BUTYRATE] | > 10 µM | > 10 µM | > 10 µM | > 10 µM | > 10 µM | > 30 µM | > 10 µM | > 10 µM | > 10 µM | > 10 µM | – | –
